The values below come from US9233964B2, “Sulfamide piperazine derivatives as protein tyrosine kinase inhibitors and pharmaceutical use therof” (LEO PHARMA A/S, priority 2011, dated 2016).

Holding throughout (format): biochemical
One assay deals with T1, JAK2 (Homo sapiens, UniProt O60674).
T1 construct: All four purified enzymes contain only the catalytic domain; His (N); purchased Carna Biosciences, Inc; host or cells: baculovirus expression system
The assay can be described thus: JAK kinase assay (HTRF, phosphorylation of synthetic peptide), JAK2. The following applies: catalytic domain, ATP at Km (4 μM); read-out: JAK2 kinase inhibitory activity (EC50). Summed up: (§1)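 Catalytic-domain human JAK1 (GST-tagged, aa 850-1154) or His-tagged JAK2, baculovirus-expressed, phosphorylated 1 µM biotinylated TK peptide at Km ATP (JAK1 7 µM, 10 mM MgCl2, 50 nM SEB; JAK2 4 µM, 5 mM MgCl2) in pH 7.0 Hepes, 20-30 min RT. EDTA stop; overnight streptavidin-XL665/cryptate HTRF read.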

In another assay the target is T2, JAK3 (Homo sapiens, UniProt P52333).
T2 construct: All four purified enzymes contain only the catalytic domain; His (N); purchased Carna Biosciences, Inc; host or cells: baculovirus expression system
Description: JAK kinase assay (HTRF, phosphorylation of synthetic peptide), JAK3. The following applies: catalytic domain, ATP at Km (2 μM); read-out: JAK3 kinase inhibitory activity (EC50).

A further assay addresses T3, JAK1 (Homo sapiens, UniProt P23458).
T3 construct: JAK1 (aa 850-1154) and TYK2 (aa 871-1187) are expressed with an N-terminally fused GST-tag; GST (N); purchased Carna Biosciences, Inc; host or cells: baculovirus expression system
Description: JAK kinase assay (HTRF, phosphorylation of synthetic peptide), JAK1. As to conditions: catalytic domain, ATP at Km (7 μM); read-out: JAK1 kinase inhibitory activity (EC50). The gist of the method: as §1

For the next assay, the target named is T4, TYK2 (Homo sapiens, UniProt P29597).
T4 construct: JAK1 (aa 850-1154) and TYK2 (aa 871-1187) are expressed with an N-terminally fused GST-tag; GST (N); purchased Carna Biosciences, Inc; host or cells: baculovirus expression system
T4 sequence (P29597 871-1187): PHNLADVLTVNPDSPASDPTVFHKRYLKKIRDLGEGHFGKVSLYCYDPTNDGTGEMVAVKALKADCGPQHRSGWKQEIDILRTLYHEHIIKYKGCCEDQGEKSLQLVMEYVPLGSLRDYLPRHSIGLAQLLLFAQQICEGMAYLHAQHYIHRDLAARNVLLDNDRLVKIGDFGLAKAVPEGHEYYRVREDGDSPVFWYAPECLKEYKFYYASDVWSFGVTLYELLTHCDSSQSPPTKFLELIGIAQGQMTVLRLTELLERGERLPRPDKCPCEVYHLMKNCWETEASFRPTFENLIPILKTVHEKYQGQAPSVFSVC
Description: JAK kinase assay (HTRF, phosphorylation of synthetic peptide), TYK2. The following applies: catalytic domain, ATP at Km (13 μM); read-out: TYK2 kinase inhibitory activity (EC50). Summed up:
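1 µM biotinylated TK peptide at Km ATP in pH 7.0 Hepes, 20-30 min RT. EDTA stop; overnight streptavidin-XL665/cryptate HTRF read.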

T3 sequence (P23458 850-1154): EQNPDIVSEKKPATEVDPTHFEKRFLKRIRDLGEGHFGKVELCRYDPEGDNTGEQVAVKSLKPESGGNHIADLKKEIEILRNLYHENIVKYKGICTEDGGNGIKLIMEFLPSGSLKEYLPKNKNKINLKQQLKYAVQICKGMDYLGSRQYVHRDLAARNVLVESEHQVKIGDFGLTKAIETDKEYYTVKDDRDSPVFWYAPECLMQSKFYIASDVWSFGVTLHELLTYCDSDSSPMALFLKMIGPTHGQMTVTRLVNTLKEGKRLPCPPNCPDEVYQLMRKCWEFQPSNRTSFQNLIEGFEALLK
T2 sequence (P52333 822-1111 limits assumed): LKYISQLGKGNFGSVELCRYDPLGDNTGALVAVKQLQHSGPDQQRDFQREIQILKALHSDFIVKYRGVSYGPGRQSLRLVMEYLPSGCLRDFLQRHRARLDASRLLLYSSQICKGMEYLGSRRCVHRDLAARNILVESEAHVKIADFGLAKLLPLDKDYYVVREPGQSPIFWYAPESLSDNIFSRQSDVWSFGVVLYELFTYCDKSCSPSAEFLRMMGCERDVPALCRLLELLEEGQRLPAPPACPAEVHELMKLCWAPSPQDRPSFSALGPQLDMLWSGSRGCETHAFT
T1 sequence (O60674 849-1124 limits assumed): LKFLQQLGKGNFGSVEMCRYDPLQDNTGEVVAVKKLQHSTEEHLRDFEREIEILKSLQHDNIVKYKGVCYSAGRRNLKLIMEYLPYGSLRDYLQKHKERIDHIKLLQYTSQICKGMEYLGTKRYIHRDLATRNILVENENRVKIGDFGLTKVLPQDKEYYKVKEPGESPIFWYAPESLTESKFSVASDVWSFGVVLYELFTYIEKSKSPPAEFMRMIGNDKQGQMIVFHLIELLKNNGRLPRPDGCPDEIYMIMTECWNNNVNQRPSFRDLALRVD

Turning to `COCCS(=O)(=O)N1CCC(CN(C)S(=O)(=O)N2CCN(c3ncnc4[nH]ccc34)CC23CC3)C1` (stereo not shown) [Example 120, N-[[1-(2-methoxyethylsulfonyl)pyrrolidin-3-yl]methyl]-N-methyl-5-(7H-pyrrolo[2,3-d]pyrimidin-4-yl)-5,8-diazaspiro[2.5]octane-8-sulfonamide], the EC50 on JAK2 is under 100 nM; on JAK3, under 100 nM; on JAK1, under 100 nM; at TYK2 it was 100 to 500 nM.
In the case of `CN(C(=O)CC1CCS(=O)(=O)CC1)S(=O)(=O)N1CCN(c2ncnc3[nH]ccc23)CC12CC2` [Example 136, 2-(1,1-dioxothian-4-yl)-N-methyl-N-[[5-(7H-pyrrolo[2,3-d]pyrimidin-4-yl)-5,8-diazaspiro[2.5]octan-8-yl]sulfonyl]acetamide], the EC50 at JAK2 was under 100 nM; on JAK3, 100 to 500 nM; at JAK1, under 100 nM; on TYK2, over 500 nM.
For the molecule `O=S(=O)(N(CCN1CCOCC1)C1CCC1)N1CCN(c2ncnc3[nH]ccc23)CC12CC2` [Example 106, N-cyclobutyl-N-(2-morpholinoethyl)-5-(7H-pyrrolo[2,3-d]pyrimidin-4-yl)-5,8-diazaspiro[2.5]octane-8-sulfonamide], the EC50 on JAK2 was under 100 nM; on JAK3 it was 100 to 500 nM; on JAK1 it was under 100 nM; on TYK2 it was over 500 nM.
For the molecule `CN(CC1CCN(C(=O)CCC#N)C1)S(=O)(=O)N1CCN(c2ncnc3[nH]ccc23)CC12CC2` (stereo not shown) [Example 126, N-[[1-(3-cyanopropanoyl)pyrrolidin-3-yl]methyl]-N-methyl-5-(7H-pyrrolo[2,3-d]pyrimidin-4-yl)-5,8-diazaspiro[2.5]octane-8-sulfonamide], the EC50 on JAK2 is under 100 nM; at JAK3, 100 to 500 nM; at JAK1, under 100 nM; on TYK2 it was over 500 nM.
For `CN(C[C@@H]1CCCN1C(=O)CO)S(=O)(=O)N1CCN(c2ncnc3[nH]ccc23)CC12CC2` [Example 192, N-[[(2S)-1-(2-hydroxyacetyl)pyrrolidin-2-yl]methyl]-N-methyl-5-(7H-pyrrolo[2,3-d]pyrimidin-4-yl)-5,8-diazaspiro[2.5]octane-8-sulfonamide], the EC50 on JAK2, on JAK3, at JAK1 and on TYK2 was under 100 nM in each case.
As for `N#CCCCN(CCCC#N)S(=O)(=O)N1CCN(c2ncnc3[nH]ccc23)CC12CC2` [Example 56, 7-(7H-Pyrrolo[2,3-d]pyrimidin-4-yl)-4,7-diaza-spiro[2.5]octane-4-sulfonic acid bis-(3-cyano-propyl)-amide], the EC50 on JAK2 is under 100 nM; on JAK3, under 100 nM; on JAK1, under 100 nM; on TYK2 it was 100 to 500 nM.
Take `O=S(=O)(N(CCOc1ccccc1)C1COC1)N1CCN(c2ncnc3[nH]ccc23)CC12CC2` [Example 115, N-(oxetan-3-yl)-N-(2-phenoxyethyl)-5-(7H-pyrrolo[2,3-d]pyrimidin-4-yl)-5,8-diazaspiro[2.5]octane-8-sulfonamide]: the EC50 on JAK2 was under 100 nM; at JAK3, under 100 nM; at JAK1, under 100 nM; at TYK2, 100 to 500 nM.
In the case of `N#CC1CCN(S(=O)(=O)N2CCN(c3ncnc4[nH]ccc34)CC23CC3)CC1` [Example 39, 1-[7-(7H-Pyrrolo[2,3-d]pyrimidin-4-yl)-4,7-diaza-spiro[2.5]octane-4-sulfonyl]-piperidine-4-carbonitrile], the half-maximal effective concentration (EC50) on JAK2 is under 100 nM; on JAK3, 100 to 500 nM; at JAK1, under 100 nM; at TYK2 it was over 500 nM.
For `CN(CCn1cccc1)S(=O)(=O)N1CCN(c2ncnc3[nH]ccc23)CC12CC2` [Example 26, 7-(7H-Pyrrolo[2,3-d]pyrimidin-4-yl)-4,7-diaza-spiro[2.5]octane-4-sulfonic acid methyl-(2-pyrrol-1-yl-ethyl)-amide], the 50% effective concentration (EC50) at JAK2, on JAK3, on JAK1 and on TYK2 was under 100 nM throughout.
For `CN(CC1CCN(C(=O)CCO)C1)S(=O)(=O)N1CCN(c2ncnc3[nH]ccc23)CC12CC2` (stereo not shown) [Example 123, N-[[1-(3-hydroxypropanoyl)pyrrolidin-3-yl]methyl]-N-methyl-5-(7H-pyrrolo[2,3-d]pyrimidin-4-yl)-5,8-diazaspiro[2.5]octane-8-sulfonamide], the EC50 is under 100 nM on JAK2, 100 to 500 nM at JAK3, under 100 nM at JAK1 and over 500 nM at TYK2.
Consider `CN(C(=O)CC(F)(F)F)S(=O)(=O)N1CCN(c2ncnc3[nH]ccc23)CC12CC2` [Example 129, 3,3,3-trifluoro-N-methyl-N-[[5-(7H-pyrrolo[2,3-d]pyrimidin-4-yl)-5,8-diazaspiro[2.5]octan-8-yl]sulfonyl]propanamide], for which the EC50 is under 100 nM at JAK2, 100 to 500 nM on JAK3, under 100 nM on JAK1 and 100 to 500 nM at TYK2.
Turning to `N#CCCCN(C1COC1)S(=O)(=O)N1CCN(c2ncnc3[nH]ccc23)CC12CC2` [Example 114, N-(3-cyanopropyl)-N-(oxetan-3-yl)-5-(7H-pyrrolo[2,3-d]pyrimidin-4-yl)-5,8-diazaspiro[2.5]octane-8-sulfonamide], the concentration giving a half-maximal response (EC50) at JAK2, at JAK3, at JAK1 and on TYK2 was under 100 nM each time.
`CN(CCc1cccc(F)c1)S(=O)(=O)N1CCN(c2ncnc3[nH]ccc23)CC12CC2` [Example 17, 7-(7H-Pyrrolo[2,3-d]pyrimidin-4-yl)-4,7-diaza-spiro[2.5]octane-4-sulfonic acid [2-(3-fluoro-phenyl)-ethyl]-methyl-amide]: the EC50 at JAK2, at JAK3, at JAK1 and on TYK2 was under 100 nM throughout.
Take `O=S(=O)(N(CCO)C1COC1)N1CCN(c2ncnc3[nH]ccc23)CC12CC2` [Example 116, N-(2-hydroxyethyl)-N-(oxetan-3-yl)-5-(7H-pyrrolo[2,3-d]pyrimidin-4-yl)-5,8-diazaspiro[2.5]octane-8-sulfonamide]: the EC50 on JAK2 was under 100 nM; on JAK3, 100 to 500 nM; on JAK1, under 100 nM; at TYK2 it was over 500 nM.
With `CN(C[C@@H]1CCCN1C(=O)CCO)S(=O)(=O)N1CCN(c2ncnc3[nH]ccc23)CC12CC2` [Example 193, N-[[(2S)-1-(3-hydroxypropanoyl)pyrrolidin-2-yl]methyl]-N-methyl-5-(7H-pyrrolo[2,3-d]pyrimidin-4-yl)-5,8-diazaspiro[2.5]octane-8-sulfonamide], the concentration giving a half-maximal response (EC50) on JAK2 is under 100 nM; at JAK3 it was under 100 nM; at JAK1, under 100 nM; at TYK2, 100 to 500 nM.
In the case of `CC(CN(C)S(=O)(=O)N1CCN(c2ncnc3[nH]ccc23)CC12CC2)c1ccccc1` (stereo not shown) [Example 63, N-methyl-N-(2-phenylpropyl)-5-(7H-pyrrolo[2,3-d]pyrimidin-4-yl)-5,8-diazaspiro[2.5]octane-8-sulfonamide], the EC50 was under 100 nM on JAK2, under 100 nM on JAK3, under 100 nM on JAK1 and 100 to 500 nM on TYK2.
Turning to `CN(C[C@@H]1CC(F)(F)CN1S(C)(=O)=O)S(=O)(=O)N1CCN(c2ncnc3[nH]ccc23)CC12CC2` [Example 162, N-[[(2S)-4,4-difluoro-1-methylsulfonyl-pyrrolidin-2-yl]methyl]-N-methyl-5-(7H-pyrrolo[2,3-d]pyrimidin-4-yl)-5,8-diazaspiro[2.5]octane-8-sulfonamide], the EC50 on JAK2, at JAK3, on JAK1 and at TYK2 was under 100 nM throughout.
Regarding `O=S(=O)(N(CCc1ccccc1)CC1CC1)N1CCN(c2ncnc3[nH]ccc23)CC12CC2` [Example 2, 7-(7H-Pyrrolo[2,3-d]pyrimidin-4-yl)-4,7-diaza-spiro[2.5]octane-4-sulfonic acid cyclopropylmethyl-phenethyl-amide], the 50% effective concentration (EC50) on JAK2 is under 100 nM; on JAK3 it was 100 to 500 nM; on JAK1 it was under 100 nM; on TYK2 it was over 500 nM.
Consider `CN(C1CNC1)S(=O)(=O)N1CCN(c2ncnc3[nH]ccc23)CC12CC2` [Int 50], for which the EC50 at JAK2 is under 100 nM; at JAK3 it was 100 to 500 nM; on JAK1, under 100 nM; at TYK2 it was over 500 nM.
